Data on one compound can be found in article PMC6934184, “Selective DNA-PKcs inhibition extends the therapeutic index of localized radiotherapy and chemotherapy” (The Journal of Clinical Investigation, 2019).

For this assay, the target named is T1, MAP2K6 (MKK6) (Homo sapiens, UniProt P52564).
T1 construct: purchased Thermo Fisher Scientific (Life Technologies) SelectScreen
The assay is described as follows: SelectScreen Z'LYTE. Type of assay: biochemical. To be noted: ATP 100 µM. The procedure, abridged: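 Percent values come from Thermo SelectScreen profiling of NU5455, combining activity and binding assays. CSF1R was run in Z'LYTE format at Km app ATP, and CAMK1 in Adapta format with ATP listed at 10.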

T1 sequence (P52564 whole entry): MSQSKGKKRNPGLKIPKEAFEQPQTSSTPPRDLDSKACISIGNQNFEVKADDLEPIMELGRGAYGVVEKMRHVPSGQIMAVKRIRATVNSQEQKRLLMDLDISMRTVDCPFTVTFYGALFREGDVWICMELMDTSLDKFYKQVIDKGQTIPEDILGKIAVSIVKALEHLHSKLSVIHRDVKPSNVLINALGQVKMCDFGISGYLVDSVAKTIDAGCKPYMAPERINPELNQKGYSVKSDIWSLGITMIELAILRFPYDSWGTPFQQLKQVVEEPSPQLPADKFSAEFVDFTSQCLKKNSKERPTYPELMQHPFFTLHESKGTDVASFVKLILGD

As a reminder, the inhibition is the percentage by which the read-out fell short of the control. As to `CN(C(=O)CN1CCOCC1)c1ccc2sc3c(-c4cccc5c(=O)cc(N6CC7CCC(C6)O7)oc45)cccc3c2c1` [NU5455], the inhibition at 1 µM came out at 1.8%.
